This is an account of results in patent publication US20060177503A1, “Bambuterol and integrin inhibitor combination and treatment method” (priority 2005, published 2006).

One data set has as its system smooth muscle. The conditions noted are these: cited from earlier work.
For another data set, the target named is plasma cholinesterase (Homo sapiens, UniProt P06276). The conditions noted are these: cited from earlier work.
The subject of data set [1] is histamine induced bronchoconstriction. The settings on record: cited from earlier work.
Another data set in a line: Hydrolytic stability. In kind it is physicochemical. From the text:
The pharmaceutical dosage forms of the present invention can be prepared according to the examples set out below. […] Furthermore, both compounds are weak bases and the solubility and stability of the compounds are sensitive to counter-ions. In order to assure the stability of the product and to achieve desirable solubility of the dosage form, the choice of excipient is critical. Including an acidulating agent such as fumaric acid, adipic acid, succinic acid, tartaric acid, citric acid, lactic acid, maleic acid, etc., in the formulation, as well as eliminating soluble cations, is important to assure the solubility and stability of the product.

Data set [2] relates to persistent asthmatics treated with low to medium inhaled corticosteroids. Briefly: MARS study: R411 added to inhaled corticosteroids, 12 week treatment period. It is filed as in vivo, human. The conditions noted are these: added to moderate dose inhaled corticosteroids, subpopulation with not well controlled asthma. From the text: As set out above, a second component in the solid pharmaceutical dosage form comprises a therapeutically effective amount of R411 (N-(2-chloro-6-methylbenzoyl)-4-[(2,6-dichlorobenzoyl)amino]-L-phenylalanine-2-(diethylamino)ethyl ester), or a pharmaceutically acceptable salt thereof. […] The MARS study illustrated in FIG. 2 was designed to evaluate the safety and efficacy of R411 over a 12 week treatment period in 350 persistent asthmatics being treated with a stable dose of low to medium inhaled corticosteroids and inhaled short acting β2-agonist. Patients were randomized to one of five cohorts: 50, 200, 600 mg once daily (QD) or 300 mg twice daily (BID) R411, or placebo (n=70/group). After a 2-week placebo run-in period and subsequent 2-week add-on period (R411 or placebo), morning inhaled corticosteroids were removed. Two weeks later, evening inhaled corticosteroids were removed, and patients remained in the treatment period for an additional 8 weeks. The primary endpoint in the study was the percentage change in FEV1 from baseline, and secondary endpoint included PEFR, asthma exacerbations, (2-agonist use, asthma control questionnaire, asthma symptom scores, nocturnal awakenings, FEF25-75 and rate of asthma treatment failures.

The target in a further data set is α4/β1 (Homo sapiens, UniProt P05556+P13612). The data set is described as follows: Inhibition of binding of α4/β1 to VCAM-1. From the text:
(§1) R411 inhibits the binding of α4/β1 to vascular cell adhesion molecule (VCAM-1) and α4/β7 to MadCAM-1 by […] is disclosed in U.S. Pat. No. 6,229,011, which disclosure is incorporated by reference herein.

For data set [3], the target named is T1, (Homo sapiens, UniProt P13612).
T1 sequence (P13612 34-1032): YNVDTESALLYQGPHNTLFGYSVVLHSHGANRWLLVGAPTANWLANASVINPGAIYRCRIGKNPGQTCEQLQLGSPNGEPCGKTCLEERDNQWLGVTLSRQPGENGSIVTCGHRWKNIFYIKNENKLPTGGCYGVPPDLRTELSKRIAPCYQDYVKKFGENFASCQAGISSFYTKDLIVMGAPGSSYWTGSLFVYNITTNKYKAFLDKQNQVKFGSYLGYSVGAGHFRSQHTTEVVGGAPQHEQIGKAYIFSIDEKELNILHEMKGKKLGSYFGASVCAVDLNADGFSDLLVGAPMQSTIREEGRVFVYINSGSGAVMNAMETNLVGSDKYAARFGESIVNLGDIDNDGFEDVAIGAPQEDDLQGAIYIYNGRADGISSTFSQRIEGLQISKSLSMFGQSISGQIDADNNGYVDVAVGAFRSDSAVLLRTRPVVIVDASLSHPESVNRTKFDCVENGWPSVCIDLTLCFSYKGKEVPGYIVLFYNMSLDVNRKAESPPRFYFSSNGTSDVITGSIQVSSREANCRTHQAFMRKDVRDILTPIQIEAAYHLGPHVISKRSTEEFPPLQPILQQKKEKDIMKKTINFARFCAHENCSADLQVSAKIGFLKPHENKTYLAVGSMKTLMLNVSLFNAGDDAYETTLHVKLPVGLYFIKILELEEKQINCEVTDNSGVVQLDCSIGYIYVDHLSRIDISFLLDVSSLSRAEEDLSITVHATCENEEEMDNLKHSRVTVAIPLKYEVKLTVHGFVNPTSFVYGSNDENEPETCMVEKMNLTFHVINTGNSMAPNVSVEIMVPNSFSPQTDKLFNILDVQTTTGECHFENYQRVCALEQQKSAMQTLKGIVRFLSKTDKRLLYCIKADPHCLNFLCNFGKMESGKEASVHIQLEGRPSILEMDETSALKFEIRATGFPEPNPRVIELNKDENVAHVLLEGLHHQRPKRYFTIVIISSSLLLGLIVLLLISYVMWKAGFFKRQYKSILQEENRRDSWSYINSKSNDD
Briefly: In vitro binding to α4 integrin, activated and not activated.

For a further data set, the system named is key inflammatory cells. Briefly: Migration of inflammatory cells from the blood into the lungs. The conditions noted are these: in vivo.
The next data set deals with atopic primate. The data set is described as follows: Airway inflammation in the atopic primate, oral R411. It is filed as in vivo. The settings on record: oral administration, FIG. 4.
For a further data set, the target named is T2, α4/β7 (Homo sapiens, UniProt P13612+P26010).
T2 sequence (P13612 34-1032): T1 sequence (P13612 34-1032)
T2 sequence (P26010 20-798): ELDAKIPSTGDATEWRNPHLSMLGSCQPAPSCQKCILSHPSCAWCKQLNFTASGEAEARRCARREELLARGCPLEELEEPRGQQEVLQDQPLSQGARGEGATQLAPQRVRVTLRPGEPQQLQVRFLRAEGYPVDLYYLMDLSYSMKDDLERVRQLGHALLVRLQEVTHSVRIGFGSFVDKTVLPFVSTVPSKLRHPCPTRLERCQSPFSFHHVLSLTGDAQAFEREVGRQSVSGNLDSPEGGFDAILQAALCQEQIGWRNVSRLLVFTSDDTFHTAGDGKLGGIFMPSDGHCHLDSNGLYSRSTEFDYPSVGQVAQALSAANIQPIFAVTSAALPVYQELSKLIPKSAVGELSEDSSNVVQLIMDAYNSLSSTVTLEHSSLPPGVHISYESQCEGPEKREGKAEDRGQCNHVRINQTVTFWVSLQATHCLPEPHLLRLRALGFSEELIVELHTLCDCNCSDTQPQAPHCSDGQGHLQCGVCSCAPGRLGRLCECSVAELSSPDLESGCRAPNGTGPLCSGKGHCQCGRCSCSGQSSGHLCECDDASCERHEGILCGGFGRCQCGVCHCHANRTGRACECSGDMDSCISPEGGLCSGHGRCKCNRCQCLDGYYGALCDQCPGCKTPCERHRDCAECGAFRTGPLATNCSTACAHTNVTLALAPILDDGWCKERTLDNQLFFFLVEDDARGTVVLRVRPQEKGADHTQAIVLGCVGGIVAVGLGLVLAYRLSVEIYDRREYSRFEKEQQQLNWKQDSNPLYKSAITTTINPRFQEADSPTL
Briefly: Inhibition of binding of α4/β7 to MadCAM-1.
From the text: as §1

Data set [4] concerns mild/moderate asthmatics not treated with inhaled corticosteroids. Briefly: ARES study: R411 monotherapy over a 12 week treatment period. It is filed as in vivo, human. On the procedure: The ARES study illustrated in FIG. 3 was designed to evaluate the safety and efficacy of monotherapy R411 over a 12 week treatment period in 480 mild/moderate asthmatics not treated with inhaled corticosteroids. Patients were randomized to one of four cohorts: 50, 200, 600 mg QD R411, or placebo (n=120/group).
The ARES study evaluated the safety and efficacy of monotherapy with R411 over a 12-week treatment period in 479 mild/moderate asthmatics not treated with inhaled corticosteroids. Patients were randomized to one of four cohorts: 50, 200, 600 mg once daily R411, or placebo.

Sequence of plasma cholinesterase (P06276 29-602): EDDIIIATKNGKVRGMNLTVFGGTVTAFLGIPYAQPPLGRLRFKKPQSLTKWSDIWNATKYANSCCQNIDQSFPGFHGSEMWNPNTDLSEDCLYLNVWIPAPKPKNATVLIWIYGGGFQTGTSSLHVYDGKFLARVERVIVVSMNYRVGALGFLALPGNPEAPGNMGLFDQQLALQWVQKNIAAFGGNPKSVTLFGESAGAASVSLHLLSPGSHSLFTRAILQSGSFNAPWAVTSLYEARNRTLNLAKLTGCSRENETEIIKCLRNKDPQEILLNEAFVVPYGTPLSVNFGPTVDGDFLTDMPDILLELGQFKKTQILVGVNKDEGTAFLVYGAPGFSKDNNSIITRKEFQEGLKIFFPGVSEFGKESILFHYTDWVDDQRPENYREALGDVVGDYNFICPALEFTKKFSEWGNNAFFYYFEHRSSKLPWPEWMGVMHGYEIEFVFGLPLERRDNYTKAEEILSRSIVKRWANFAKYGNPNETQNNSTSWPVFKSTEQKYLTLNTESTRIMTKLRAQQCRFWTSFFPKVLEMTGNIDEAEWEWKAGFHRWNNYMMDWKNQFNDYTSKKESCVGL
Sequence of α4/β1 (P05556 21-798, one chain of several): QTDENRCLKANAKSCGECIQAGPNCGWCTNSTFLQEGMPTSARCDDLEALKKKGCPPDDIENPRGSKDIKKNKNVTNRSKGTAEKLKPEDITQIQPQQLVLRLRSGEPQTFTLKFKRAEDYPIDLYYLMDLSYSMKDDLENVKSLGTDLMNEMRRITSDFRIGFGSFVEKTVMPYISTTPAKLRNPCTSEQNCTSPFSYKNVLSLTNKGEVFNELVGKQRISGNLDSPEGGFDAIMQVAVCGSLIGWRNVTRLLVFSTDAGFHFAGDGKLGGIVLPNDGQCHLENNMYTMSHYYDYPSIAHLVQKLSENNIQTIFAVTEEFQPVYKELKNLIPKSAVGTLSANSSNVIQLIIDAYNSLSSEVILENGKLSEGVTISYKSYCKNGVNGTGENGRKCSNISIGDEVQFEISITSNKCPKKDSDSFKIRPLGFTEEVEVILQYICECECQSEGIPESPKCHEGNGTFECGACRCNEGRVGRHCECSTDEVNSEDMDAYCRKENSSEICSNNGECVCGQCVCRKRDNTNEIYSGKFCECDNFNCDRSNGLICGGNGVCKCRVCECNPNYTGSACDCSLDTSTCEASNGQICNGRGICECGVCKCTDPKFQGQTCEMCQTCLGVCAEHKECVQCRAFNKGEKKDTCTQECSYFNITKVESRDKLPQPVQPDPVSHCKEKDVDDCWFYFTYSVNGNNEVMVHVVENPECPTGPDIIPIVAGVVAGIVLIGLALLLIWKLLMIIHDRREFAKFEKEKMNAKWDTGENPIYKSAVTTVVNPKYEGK

Take `CN(C)C(=O)Oc1cc(O)cc(C(O)CNC(C)(C)C)c1` (centres unmarked) [monocarbamate ester]: in the data set on smooth muscle, the “smooth muscle relaxing properties” value was “did not exert any”.
Regarding `CN(C)C(=O)Oc1cc(OC(=O)N(C)C)cc([C@H](O)CNC(C)(C)C)c1` [(+)-bambuterol], the “activity as plasma cholinesterase inhibitors” value on plasma cholinesterase is listed as “equally active”.
For the compound `CN(C)C(=O)Oc1cc(OC(=O)N(C)C)cc(C(O)CNC(C)(C)C)c1` (centres unmarked) [Bambuterol, dimethylcarbamic acid 5-[2-[(1,1-dimethylethyl)amino]-1-hydroxyethyl]-1,3-phenylene ester], the “duration of the relaxing activity” value in [1] (equipotent doses, compared with terbutaline) is listed as “more prolonged”. Further, in data set [1] (oral administration), the “protective effect against histamine induced bronchoconstriction” value is listed as “sustained protective effect”. For the same compound, in the data set “Hydrolytic stability”, the hydrolytic degradation entry is recorded as “susceptible to hydrolytic degradation”. Further, the “smooth muscle relaxing properties” value with smooth muscle is on record as “did not exert any”.
Consider `CCN(CC)CCOC(=O)[C@H](Cc1ccc(NC(=O)c2c(Cl)cccc2Cl)cc1)NC(=O)c1c(C)cccc1Cl` [R411, N-(2-Chloro-6-methylbenzoyl)-4-[(2,6-dichlorobenzoyl)amino]-L-phenylalanine-2-(diethylamino)ethyl ester], for which, in data set [2] (FIG. 1), the “large airway flow rates as measured by FEV1” value is on record as “additive effect”. Moreover, the “small airway flow rates measured by FEF25-75” value in data set [2] (FIG. 2) is recorded as “additive effect”. At α4/β1, the “binding of α4/β1 to VCAM-1” value was “inhibits” and the “effectiveness against α4/β1 integrin” value was “effective”. In [3] (activated α4 ligand), the binding affinity entry was “high affinity” and the dissociation result is “slow dissociation”. Moreover, in data set [3] (receptor not activated), the dissociation result is reported as “more rapid” and the “in vitro binding affinity” value was “lower”. Further, the “migration of key inflammatory cells from the blood into the lungs” value with key inflammatory cells is reported as “block the migration”. Also, in the data set “Hydrolytic stability”, the hydrolytic degradation result is listed as “susceptible to hydrolytic degradation”. In addition, the airway inflammation result with atopic primate is recorded as “attenuates airway inflammation”. At α4/β7, the “binding of α4/β7 to MadCAM-1” value is given as “inhibits” and the “effectiveness against α4/β7 integrin” value was “effective”. In data set [4] (compared to placebo), the “Asthma Control Questionnaire Scores” value was “Improvement” and the “Asthma Quality-of-Life” value is “Improvement”. In data set [4] (monotherapy, 12 weeks), the “decrease in daytime asthma symptom score” value is “Statistically significant improvements”, the “decrease in nocturnal symptom score” value was “Statistically significant improvements” and the “reducing rescue albuterol use” value is on record as “Statistically significant improvements”. The “small airway flow rates as measured by FEF25-75” value in data set [4] (monotherapy, FIG. 3) was “significant effect”.
For the compound `CN(C)C(=O)Oc1cc(OC(=O)N(C)C)cc(C(O)CNC(C)(C)C)c1` (single isomer, unassigned; (-)) [(−)-bambuterol], on plasma cholinesterase, the “activity as plasma cholinesterase inhibitors” value is “equally active”.
